Several values for one entry are separate records, joined by “and”; a condition that tells them apart may be missing. Equal values may be shown once.
What was measured:
[1] = ITC titration with D-glucose; format: binding; settings: d-glucose in 10 mM phosphate buffer, 298 K (Table 6)
Experimental: ITC experiments were carried out at 298 K. Saccharide solutions were prepared in HPLC-grade water with 10 mM phosphate buffer solution (pH 7.4) and allowed to equilibrate overnight if necessary. The sample cell was charged with a known concentration of receptor solution in HPLC-grade water with 10 mM phosphate buffer solution at pH 7.4 (typically 50 µM - 200 µM). Then, aliquots (typically 1.0 µL) of carbohydrate solution were added and the evolution of heat was followed as a function of time. Heats of dilution were measured by injecting the same carbohydrate solution into HPLC-grade water with 10 mM phosphate buffer solution at pH 7.4, using identical conditions. For every addition, the heat of dilution was subtracted from the heat of binding using a MicroCal software programme implemented in ORIGIN 7.0. This gave an XY matrix of heat vs. total guest concentration. This matrix was then imported into a specially written Excel programme to fit the data to a 1:1 binding model to give a Ka. ΔG can be derived from Ka and thus ΔS can be derived from ΔH and ΔG using common thermodynamic equations. […] This method consistently produced more accurate fits than fitting the data to an S-curve, as in the MicroCal software (S-curves are typically not observed for binding constants below ~104 - 105 M^-1).

[2] = 1H NMR titration with D-glucose; format: binding; settings: D2O; buffer differs by receptor (FIGS. 68-73, 77) (Table 6)
Experimental: ^1H-NMR titrations were performed on a Varian VNMR cryogenically cooled S600 spectrometer. Solutions of saccharides in D2O (99.9%), containing receptor at a known concentration to be used in the experiment, were prepared and allowed to equilibrate overnight before use if necessary. Aliquots were then added to an NMR tube containing a known concentration of receptor solution (typically 100 µM - 400 µM). The receptor concentration was therefore held constant while the carbohydrate concentration was increased. The sample tube was shaken after each addition and ^1H-NMR spectra were acquired at 298 K.
^1H-NMR titrations were performed on a Varian VNMR cryogenically cooled S600 spectrometer. Solutions of saccharides in D2O (99.9%), containing receptor at a known concentration to be used in the experiment, were prepared and allowed to equilibrate overnight before use if necessary. Aliquots were then added to an NMR tube containing a known concentration of receptor solution (typically 50 µM - 250 µM). The receptor concentration was therefore held constant while the carbohydrate concentration was increased. The sample tube was shaken after each addition, centrifuged and ^1H-NMR spectra were acquired at 298 K.
If the receptor bound saccharide slower than the NMR sample rate (“slow exchange”), the Ka was determined by analysing the NMR integral of a peak assigned to the Host-Guest complex. The variable X was defined as the integral of an isolated resonance of the complex (typically in the aromatic region) divided by the integral of all the related resonances (typically the whole aromatic region). As X is proportional to fraction of host in the bound state, the change in X could be plotted as a function of the guest concentration to give a curve which could be fitted to a 1:1 binding model to yield the association constant Ka. Mathematically, the fitting process is essentially identical to that employed for binding with fast exchange, except that the integral of a peak due to the complex replaces the chemical shift of a peak due to bound + unbound receptor. The calculation was performed using a non-linear least squares curve-fitting programme implemented within Excel. The programme yields binding constants Ka and limiting X (Xlim) as output. An estimated error for Ka was obtained from individual data points by assuming the determined Ka and Xlim.

Structure (SMILES)	Binding affinity for D-glucose (Ka), Determined by ITC [1]	Binding affinity for D-glucose (Ka), Determined by 1H-NMR [2]
Cc1c2c(C)c3c(C)c1CNC(=O)Nc1ccc(C(=O)NC(CCC(=O)NC(CCC(=O)O)(CCC(=O)O)CCC(=O)O)(CCC(=O)NC(CCC(=O)O)(CCC(=O)O)CCC(=O)O)CCC(=O)NC(CCC(=O)O)(CCC(=O)O)CCC(=O)O)cc1NC(=O)NCc1c(C)c(c(C)c(c1C)CNC(=O)Nc1cc(C(=O)NC(CCC(=O)NC(CCC(=O)O)(CCC(=O)O)CCC(=O)O)(CCC(=O)NC(CCC(=O)O)(CCC(=O)O)CCC(=O)O)CCC(=O)NC(CCC(=O)O)(CCC(=O)O)CCC(=O)O)ccc1NC(=O)NC3)CNC(=O)Nc1cc(C(=O)NC(CCC(=O)NC(CCC(=O)O)(CCC(=O)O)CCC(=O)O)(CCC(=O)NC(CCC(=O)O)(CCC(=O)O)CCC(=O)O)CCC(=O)NC(CCC(=O)O)(CCC(=O)O)CCC(=O)O)ccc1NC(=O)NC2 [Receptor 8]	4210 M⁻¹ and 4210 ± 73 M⁻¹	–
CCc1c2c(CC)c3c(CC)c1CNC(=O)Nc1ccc(C(=O)NCCOCCOCCOCCN)cc1NC(=O)NCc1c(CC)c(c(CC)c(c1CC)CNC(=O)Nc1cc(C(=O)NCCOCCOCCOCCN)ccc1NC(=O)NC3)CNC(=O)Nc1cc(C(=O)NCCOCCOCCOCCN)ccc1NC(=O)NC2 [Receptor 10]	–	481 ± 57 M⁻¹
CCc1c2c(CC)c3c(CC)c1CNC(=O)Nc1cc(C(=O)[O-])c(C(=O)[O-])cc1NC(=O)NCc1c(CC)c(c(CC)c(c1CC)CNC(=O)Nc1cc(C(=O)[O-])c(C(=O)[O-])cc1NC(=O)NC3)CNC(=O)Nc1cc(C(=O)[O-])c(C(=O)[O-])cc1NC(=O)NC2.[Na+].[Na+].[Na+].[Na+].[Na+].[Na+] [Receptor 11, Hexa-carboxylate Hexa-urea Macrocycle]	–	~ 2000 M^-1
CCc1c2c(CC)c3c(CC)c1CNC(=O)Nc1cc(C(=O)NC(CCC(=O)NC(CCC(=O)[O-])(CCC(=O)[O-])CCC(=O)[O-])(CCC(=O)NC(CCC(=O)[O-])(CCC(=O)[O-])CCC(=O)[O-])CCC(=O)NC(CCC(=O)[O-])(CCC(=O)[O-])CCC(=O)[O-])ccc1NC(=O)NCc1c(OC)c(c(OC)c(c1OC)CNC(=O)Nc1ccc(C(=O)NC(CCC(=O)NC(CCC(=O)[O-])(CCC(=O)[O-])CCC(=O)[O-])(CCC(=O)NC(CCC(=O)[O-])(CCC(=O)[O-])CCC(=O)[O-])CCC(=O)NC(CCC(=O)[O-])(CCC(=O)[O-])CCC(=O)[O-])cc1NC(=O)NC3)CNC(=O)Nc1ccc(C(=O)NC(CCC(=O)NC(CCC(=O)[O-])(CCC(=O)[O-])CCC(=O)[O-])(CCC(=O)NC(CCC(=O)[O-])(CCC(=O)[O-])CCC(=O)[O-])CCC(=O)NC(CCC(=O)[O-])(CCC(=O)[O-])CCC(=O)[O-])cc1NC(=O)NC2.[Na+].[Na+].[Na+].[Na+].[Na+].[Na+].[Na+].[Na+].[Na+].[Na+].[Na+].[Na+].[Na+].[Na+].[Na+].[Na+].[Na+].[Na+].[Na+].[Na+].[Na+].[Na+].[Na+].[Na+].[Na+].[Na+].[Na+] [Receptor 13]	1310 M⁻¹ and 1310 ± 33 M⁻¹	–
CCc1c2c(CC)c3c(CC)c1CNC(=O)Nc1ccc(C(=O)NC(CCC(=O)NC(CCC(=O)[O-])(CCC(=O)[O-])CCC(=O)[O-])(CCC(=O)NC(CCC(=O)[O-])(CCC(=O)[O-])CCC(=O)[O-])CCC(=O)NC(CCC(=O)[O-])(CCC(=O)[O-])CCC(=O)[O-])cc1NC(=O)NCc1c(C)c(c(C)c(c1C)CNC(=O)Nc1cc(C(=O)NC(CCC(=O)NC(CCC(=O)[O-])(CCC(=O)[O-])CCC(=O)[O-])(CCC(=O)NC(CCC(=O)[O-])(CCC(=O)[O-])CCC(=O)[O-])CCC(=O)NC(CCC(=O)[O-])(CCC(=O)[O-])CCC(=O)[O-])ccc1NC(=O)NC3)CNC(=O)Nc1cc(C(=O)NC(CCC(=O)NC(CCC(=O)[O-])(CCC(=O)[O-])CCC(=O)[O-])(CCC(=O)NC(CCC(=O)[O-])(CCC(=O)[O-])CCC(=O)[O-])CCC(=O)NC(CCC(=O)[O-])(CCC(=O)[O-])CCC(=O)[O-])ccc1NC(=O)NC2.[Na+].[Na+].[Na+].[Na+].[Na+].[Na+].[Na+].[Na+].[Na+].[Na+].[Na+].[Na+].[Na+].[Na+].[Na+].[Na+].[Na+].[Na+].[Na+].[Na+].[Na+].[Na+].[Na+].[Na+].[Na+].[Na+].[Na+] [Receptor 14]	–	14926 ± 1566 M⁻¹

Source: patent publication US20230365514A1, “MACROCYCLIC COMPOUNDS” (NOVO NORDISK RESEARCH CENTRE OXFORD LIMITED, priority 2017, published 2023)
